Reference: patent publication US11162083B2, “Peptide based inhibitors of Raf kinase protein dimerization and kinase activity” (UNIVERSITY OF SOUTH CAROLINA, priority 2018, dated 2021)

Tests used:
dimer interface of B-Raf = dimer interface of B-Raf (Homo sapiens, UniProt P15056); test: Dissociation constant (Kd) determination from intrinsic Trp fluorescence (ITF) measurements; assay type: binding; conditions: for Kd, binding affinity to the dimer forming interface of B-Raf (FIG. 1): no unit printed in this block
Method: The dissociation constant is an indicator of binding strength between two molecules. For the reaction: P+L↔PL Kd is expressed by Equation 1: Kd=[P][L]/[PL] Eq. 1 where [P] is the concentration of free Protein, [L] is the concentration of free Ligand, and [PL] is the Ligand-bound-Protein.
Fluorescence intensity was measured with a Hitachi F-2500 fluorescence spectrophotometer. A 1.6 mL of protein solution (0.5 μM) was placed in a cuvette and equilibrated at 15° C. for 1 hour. After equilibration, small increments (2-15 μL) of the ligand solution were injected in the cuvette. The experiments were performed in 20 mM Hepes buffer (pH 7.5), 10 mM MgCl2, 30 mM NaCl. […] The slits were set at 10 and 10 nm in the excitation and emission respectively. To determine dilution effect of B-Raf (due to ligand addition) and any fluorescence effect by unbound ligand, a blank sample containing Trp with the same fluorescence signal, was titrated with ligand additions as described above. The sample absorbance was kept below 0.1 to minimize the inner filter effect.
Dissociation constant of B-Raf/Ligand was calculated by fitting data in Eq. 2.
Data were analyzed using Origin 7, using the one site bind function for nonlinear fit.

B-Raf = B-Raf (Homo sapiens, UniProt P15056); assay type: binding
From the text: An isothermal titration calorimeter composed of two identical cells surrounded by an adiabatic jacket was used to perform ITC measurements. The thermopile/thermocouple circuits were used to detect temperature differences between a reference cell (filled with buffer or water) and a sample cell containing the macromolecule. During an experiment, ligand is titrated into the sample cell in precisely known aliquots, causing heat to be either taken up or evolved (depending on the nature of the reaction). Measurements consist of the time-dependent input of power required to maintain equal temperatures between the sample and reference cells. In an exothermic reaction, the temperature in the sample cell increases upon addition of ligand. This causes the feedback power to the sample cell to be decreased (remember: a reference power is applied to the reference cell) in order to maintain an equal temperature between the two cells. In an endothermic reaction, the opposite occurs; the feedback circuit increases the power in order to maintain a constant temperature (isothermic/isothermal operation). […] The pattern of these heat effects as a function of the molar ratio [ligand]/[macromolecule] can then be analyzed to give the thermodynamic parameters of the interaction under study.

[1] = system: NRASQ61K-mutant SBC12 melanoma cells; test: Western blotting of MEK/ERK signaling in melanoma cells; conditions: peptide added to SBC12 cells; 1 μM PLX4032 or DMSO; Western blot
Method: Following recovery at 37° C. for 30 minutes, the cells were treated with 1 μM PLX4032 for 1 hour or DMSO as a vehicle control. Subsequently, the cells were harvested, lysed using RIPA buffer and analyzed by Western blotting using the indicated antibodies. […] Four hours prior to harvest, the cells were treated with 1 μM vemurafenib (PLX4032), or the same volume of DMSO as vehicle control. RIPA buffer lysates were subjected to Western blotting using the indicated antibodies. Detection of HSP90 serves as a representative loading control.
Following recovery at 37° C. for 30 minutes, cells were treated with 1 μM PLX4032 for 1 hour or DMSO as a vehicle control. Subsequently, the cells were harvested, lysed using RIPA buffer, and analyzed by Western blotting using the indicated antibodies.

dimer interface of B-Raf, sequence (P15056 whole entry): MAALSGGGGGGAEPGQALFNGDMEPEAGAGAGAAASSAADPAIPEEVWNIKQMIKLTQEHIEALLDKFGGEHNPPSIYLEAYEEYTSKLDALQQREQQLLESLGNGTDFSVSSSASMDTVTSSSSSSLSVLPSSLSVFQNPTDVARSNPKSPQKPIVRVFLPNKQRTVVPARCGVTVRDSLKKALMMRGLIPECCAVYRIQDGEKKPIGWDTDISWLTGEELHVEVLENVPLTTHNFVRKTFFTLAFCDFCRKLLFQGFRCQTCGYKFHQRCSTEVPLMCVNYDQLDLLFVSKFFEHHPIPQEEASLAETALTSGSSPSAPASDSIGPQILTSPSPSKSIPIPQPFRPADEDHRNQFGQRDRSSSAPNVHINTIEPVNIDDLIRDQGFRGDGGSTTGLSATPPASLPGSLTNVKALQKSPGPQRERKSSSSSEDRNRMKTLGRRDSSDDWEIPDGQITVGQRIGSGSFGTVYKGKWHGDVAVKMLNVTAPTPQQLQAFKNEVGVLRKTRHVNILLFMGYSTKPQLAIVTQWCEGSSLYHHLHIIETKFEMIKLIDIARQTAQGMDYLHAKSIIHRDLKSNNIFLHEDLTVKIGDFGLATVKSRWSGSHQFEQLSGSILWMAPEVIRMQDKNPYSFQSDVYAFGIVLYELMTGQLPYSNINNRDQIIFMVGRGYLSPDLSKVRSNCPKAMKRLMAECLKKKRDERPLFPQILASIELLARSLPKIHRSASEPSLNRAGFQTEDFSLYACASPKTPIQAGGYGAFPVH
B-Raf, sequence (P15056 whole entry): as above

CC[C@H](C)[C@H](NC(=O)[C@H](CC(N)=O)NC(=O)[C@@H](NC(=O)[C@H](Cc1cnc[nH]1)NC(=O)[C@H](CCCNC(=N)N)NC(=O)[C@@H](NC(=O)[C@H](CCCCN)NC(=O)[C@H](CCCNC(=N)N)NC(=O)[C@H](CC(C)C)NC(=O)[C@@H](NC(=O)CN)C(C)C)[C@@H](C)O)C(C)C)C(=O)N[C@@H](CC(C)C)C(=O)N[C@@H](CC(C)C)C(=O)N[C@@H](Cc1ccccc1)C(=O)N[C@@H](CCSC)C(=O)NCC(=O)N[C@@H](Cc1ccc(O)cc1)C(=O)N[C@@H](CO)C(=O)N[C@H](C(=O)O)[C@@H](C)O [SEQ ID NO: 1]
Kd (dimer interface of B-Raf): ~3.84 µM

CC[C@H](C)[C@H](NC(=O)[C@H](CC(N)=O)NC(=O)[C@@H](NC(=O)[C@H](Cc1cnc[nH]1)NC(=O)[C@H](CCCNC(=N)N)NC(=O)[C@@H](NC(=O)[C@H](CCCCN)NC(=O)[C@H](CC(C)C)NC(=O)[C@H](CC(C)C)NC(=O)[C@@H](NC(=O)CN)C(C)C)[C@@H](C)O)C(C)C)C(=O)N[C@@H](CC(C)C)C(=O)N[C@@H](CC(C)C)C(=O)N[C@@H](Cc1ccccc1)C(=O)N[C@@H](CCSC)C(=O)NCC(=O)N[C@@H](Cc1ccc(O)cc1)C(=O)N[C@@H](CO)C(=O)N[C@H](C(=O)O)[C@@H](C)O [SEQ ID NO: 6]
Kd (dimer interface of B-Raf): ~0.54 µM

CC[C@H](C)[C@H](NC(=O)[C@H](CC(N)=O)NC(=O)[C@@H](NC(=O)[C@H](Cc1c[nH]cn1)NC(=O)[C@H](CCCNC(=N)N)NC(=O)[C@H](C)NC(=O)[C@H](CCCCN)NC(=O)[C@H](CCCNC(=N)N)NC(=O)[C@H](CC(C)C)NC(=O)[C@@H](NC(=O)CN)C(C)C)C(C)C)C(=O)N[C@@H](CC(C)C)C(=O)N[C@@H](CC(C)C)C(=O)N[C@@H](Cc1ccccc1)C(=O)N[C@@H](CCSC)C(=O)NCC(=O)N[C@@H](Cc1ccc(O)cc1)C(=O)N[C@@H](CO)C(=O)N[C@H](C(=O)O)[C@@H](C)O [SEQ ID NO: 8]
ΔH of binding (ITC) (B-Raf): -34.8 kJ/mol
ΔS of binding (ITC) (B-Raf): −28.4 J/mol·K

CC[C@H](C)[C@H](NC(=O)[C@H](CC(N)=O)NC(=O)[C@@H](NC(=O)[C@H](Cc1c[nH]cn1)NC(=O)[C@H](CCCNC(=N)N)NC(=O)[C@@H](NC(=O)[C@H](CCCCN)NC(=O)[C@H](CCCNC(=N)N)NC(=O)[C@H](CC(C)C)NC(=O)[C@@H](N)C(C)C)[C@@H](C)O)C(C)C)C(=O)N[C@@H](CC(C)C)C(=O)N[C@@H](CC(C)C)C(=O)N[C@@H](Cc1ccccc1)C(=O)N[C@@H](CCSC)C(=O)NCC(=O)O [SEQ ID NO: 17]
downstream signaling of MEK and ERK (pMEK, pERK) [1]: reduce downstream signaling of MEK and ERK

GVLRKTHHVNILGFWGYST [SEQ ID NO: 2]
Kd, binding affinity to the dimer forming interface of B-Raf (FIG. 1) (dimer interface of B-Raf): no measurable binding

GVLRKTRFVNILLFMGYST [SEQ ID NO: 9]
Kd, binding affinity to the dimer forming interface of B-Raf (FIG. 1) (dimer interface of B-Raf): no measurable binding

GVLRKTRHVNILLDMGYST [SEQ ID NO: 14]
Kd, binding affinity to the dimer forming interface of B-Raf (FIG. 1) (dimer interface of B-Raf): no measurable binding
